From patent US6156754A, “Glycoconjugates of modified camptothecin derivatives (A-or B-ring linkage)” (Bayer Aktiengesellschaft, priority 1996, dated 2000)
Values after ≈ are worked out from the molar mass of the structure shown. Structures can show the parent of a compound that is named as a salt.

How the values were obtained:
B16F10 = assay: Growth inhibition (MTT) test, cytotoxic action on B16F10; format: cell-based, mouse; conditions: B16F10 cell line, growth checked after day 3 and day 6
Experimental: (§1) 1. Growth Inhibition Test for the Determination of the Cytotoxic Properties
(§2) The human large intestine cell lines SW 480 and HT 29 (ATCC No. CCL 228 and HBT 38) and the mouse melanoma cell line B 16 F 10 were grown in Roux dishes in RPMI 1640 medium with addition of 10% FCS. They were then trypsinized and taken up in RPMI plus 10% FCS to a cell count of 50,000 cells/ml. 100 μl of cell suspension/well were added to a 96 microwell plate and incubated for 1 day at 37° C. in a CO2 incubator. A further 100 μl of RPMI Medium and 1 μl of DMSO containing the test substances were then added. The growth was checked after day 3 and day 6. To this end, 40 μl of MTT solution (3-(4,5-dimethylthiazol-2-yl)-2,5-diphenyl-tetrazolium bromide) having a starting concentration of 5 mg/ml of H2 O were added to each microwell. Incubation was carried out for 5 hours in a CO2 incubator at 37° C. The medium was then aspirated and 100 μl of i-propanol/well were added. After shaking for 30 min with 100 μl of H2 O, the extinction was measured at 540 nm using a Titertek Multiscan MCC/340 (Flow).
(§3) The cytotoxic action is indicated in Table 1 as the IC50 value (dose which inhibits the cell growth to 50% of the cell growth of the control) in each case for the SW 480 and HT 29 and B16F10 cell lines: […]

HT 29 = assay: Growth inhibition (MTT) test, cytotoxic action on HT 29; format: cell-based, human; conditions: HT 29 cell line, growth checked after day 3 and day 6
Experimental: as §1, §2, §3

SW 480 = assay: Growth inhibition (MTT) test, cytotoxic action on SW 480; format: cell-based, human; conditions: SW 480 cell line, growth checked after day 3 and day 6
Experimental: as §1, §2, §3

[1] = In vivo inhibition of tumour growth in the nude mouse model (LXFL 529 xenograft); parameters: species or system human tumour in athymic nude mice (NMRI nu/nu); conditions: mouse, in vivo, ip; nude mice, i.p. day 1, 2, 3; read-out: maximum tolerable dose (MTD)
Experimental: (§4) 3. In Vivo Inhibition of Tumour Growth in the Nude Mouse Model
(§5) For all in vivo experiments for investigation of the inhibition of tumour growth athymic nude mice (NMRI nu/nu strain) were used. The selected large-cell lung carcinoma LXFL 529 was grown by serial passage in nude mice. The human origin of the tumour was confirmed by isoenzymatic and immunohistochemical methods.
(§6) The tumour was implanted subcutaneously into both flanks of 6 to 8 week old nu/nu nude mice. The treatment was started, depending on the doubling time, as soon as the tumours had reached a diameter of 5-7 mm. The mice were assigned to the treatment group and the control group (5 mice per group with 8-10 assessable tumours) by randomization. The individual tumours of the control group all grew progessively.
(§7) The size of the tumours was measured in two dimensions by means of a slide gauge. The tumour volume, which correlated well with the cell count, was then used for all evaluations. The volume was calculated according to the formula "length×breadth×breadth/2" ([a×b^2 ]/2, a and b represent two diameters at right angles).
(§8) The values of the relative tumour volume (RTV) were calculated for each individual tumour by dividing the tumour size on day X with the tumour size on day 0 (at the time of randomization). The mean values of the RTV were then used for the further evaluation.
(§9) The inhibition of the increase of the tumour volume (tumour volume of the test group/control group, T/C, in per cent) was the final measured value.
(§10) The administration of the compounds was carried out intraperitoneally (i.p.) on day 1, 2 and 3 after randomization.

[2] = system: large-cell lung carcinoma LXFL 529; assay: as above; parameters: species or system human tumour in athymic nude mice (NMRI nu/nu); conditions: for Relative body weight on day 7 / Relative tumour volume on day 14 / Survival time: i.p. day 1, 2, 3; for Relative body weight on day 7: control 102; for Relative tumour volume on day 14: control 691; for Survival time: each of five mice
Experimental: as §4, §5, §6, §7, §8, §9, §10

Bone marrow cells = assay: Haematopoietic activity: bone marrow stem cell colony formation; format: cell-based, mice
Experimental: 2. Haematopoietic Activity of Glycoconjugates in Comparison with the Underlying Active Compound
Bone marrow cells are washed out of mice femurs. 10^5 cells are incubated at 37° C. and 7% CO2 in McCoy 5A medium (0.3% agar) together with recombinant murine GM-CSF (Genzyme; stem cell colony formation) and the substances (10^-4 to 100 μg/ml). 7 days later, the colonies ([…]) and clusters (17-50 cells) are counted.
As shown in Tab. 2 with reference to Example 2.1, the glycoconjugates investigated show, compared with the underlying active compound, an inhibition of the bone marrow stem cell proliferation which is reduced approximately by the factor 100.

## CCC1(O)C(=O)OCc2c1cc1n(c2=O)Cc2c-1nc1cc3c(cc1c2CN1CCN(C(=O)[C@H](C)NC(=O)[C@H](CCCCNC(=S)Nc2ccc(O[C@H]4O[C@@H](C)[C@@H](O)[C@@H](OC)[C@@H]4O)cc2)NC(=S)Nc2ccc(O[C@H]4O[C@@H](C)[C@@H](O)[C@@H](OC)[C@@H]4O)cc2)CC1)OCCO3 (mixture of isomers) [Example 3.1]
B16F10
  IC50: 0.5 nM
HT 29
  IC50: 0.06 nM
SW 480
  IC50: 0.08 nM

## CCC1(O)C(=O)OCc2c1cc1n(c2=O)Cc2c-1nc1cc3c(cc1c2CN1CCN(C(=O)[C@H](C)NC(=O)[C@H](CCCCN)NC(=S)Nc2ccc(O[C@H]4O[C@@H](C)[C@@H](O)[C@@H](OCC(=O)O)[C@@H]4O)cc2)CC1)OCCO3 (mixture of isomers) [Example 3.3, 10,11-(Ethylenedioxy)-7-{1-[N^α -(O-(3-O-carboxymethyl-β-L-fucopyranosyl)-4-hydroxy-phenylaminothiocarbonyl]-L-lysyl-L-alanyl]-piperazin-4-yl-methyl}-20(R/S)-camptothecin, hydrochloride]
HT 29
  IC50: 0.1 nM
SW 480
  IC50: 0.25 nM

## CC[C@@]1(O)C(=O)OCc2c1cc1n(c2=O)Cc2c-1nc1ccccc1c2COC(=O)[C@H](C)NC(=O)[C@H](CCCCNC(=S)Nc1ccc(O[C@H]2O[C@@H](C)[C@@H](O)[C@@H](OC)[C@@H]2O)cc1)NC(=S)Nc1ccc(O[C@H]2O[C@@H](C)[C@@H](O)[C@@H](OC)[C@@H]2O)cc1 [Example 1.1, 7-{N^α,N^ε -bis-[O-(3-O-Methyl-β-L-fucopyranosyl)-4-hydroxy-phenylaminothiocarbonyl]-L-lysyl-L-alanyloxymethyl}-camptothecin]
B16F10
  IC50: 0.18 nM
HT 29
  IC50: 0.025 nM
SW 480
  IC50: 0.015 nM
[1]
  MTD: 12.5 mg/kg/day
[2]; 3.125 mg/kg/day
  Relative body weight on day 7: 93 % of day 0
  Relative tumour volume on day 14: 0.1 % of day 0
  Survival time: > 21 days
[2]; 6.25 mg/kg/day
  Relative body weight on day 7: 93 % of day 0
  Relative tumour volume on day 14: 0.1 % of day 0
  Survival time: > 21 days
[2]; 12.5 mg/kg/day (MTD)
  Relative body weight on day 7: 72 % of day 0
  Relative tumour volume on day 14: 0.1 % of day 0
  Survival time: > 21 days
[2]; at MTD, 1/2 MTD and 1/4 MTD
  therapeutic efficacy (remission of the tumour): complete remission of the tumour

## CC[C@@]1(O)C(=O)OCc2c1cc1n(c2=O)Cc2c-1nc1ccccc1c2COC(=O)[C@@H](NC(=O)[C@H](CCCCN)NC(=S)Nc1ccc(O[C@H]2O[C@@H](C)[C@@H](O)[C@@H](OCC(=O)O)[C@@H]2O)cc1)C(C)C [Example 1.3, 7-{N^α -[O-(3-O-Carboxymethyl-β-L-fucopyranosyl)-4-hydroxy-phenylamino-thiocarbonyl]-L-lysyl-L-valyloxymethyl}-camptothecin, hydrochloride]
HT 29
  IC50: 0.03 nM
SW 480
  IC50: 0.04 nM

## CC[C@@]1(O)C(=O)OCc2c1cc1n(c2=O)Cc2c-1nc1ccccc1c2COC(=O)[C@@H](NC(=O)[C@H](CCCCN)NC(=S)Nc1ccc(O[C@H]2O[C@@H](C)[C@@H](O)[C@@H](OC)[C@@H]2O)cc1)C(C)C [Example 1.4, 7-{N^α -[O-(3-O-Methyl-β-L-fucopyranosyl)-4-hydroxy-phenylamino-thiocarbonyl)-L-lysyl-L-valyoxymethyl}-camptothecin, Hydrochloride]
B16F10
  IC50: 0.2 nM
HT 29
  IC50: 0.04 nM
SW 480
  IC50: 0.03 nM

## CC[C@@]1(O)C(=O)OCc2c1cc1n(c2=O)Cc2cc3c(NC(=O)[C@H](C)NC(=O)[C@H](CCCCNC(=S)Nc4ccc(O[C@H]5O[C@@H](C)[C@@H](O)[C@@H](OC)[C@@H]5O)cc4)NC(=S)Nc4ccc(O[C@H]5O[C@@H](C)[C@@H](O)[C@@H](OC)[C@@H]5O)cc4)cccc3nc2-1 [Example 2.1, 9-{N^α,N^ε -bis-[O-(3-O-Methyl-β-L-fucopyranosyl)-4-hydroxy-phenylamino-thiocarbonyl]-L-lysyl-L-alanyl-amino}-camptothecin]
Bone marrow cells; glycoconjugate vs underlying active compound (2.1.a)
  reduction of inhibition of bone marrow stem cell proliferation compared with the underlying active compound (factor): ~100
Bone marrow cells; mouse bone marrow cells with GM-CSF, 7 days
  IC50 (inhibition of bone marrow stem cell proliferation): 170 ng/mL
B16F10
  IC50: 2 nM
HT 29
  IC50: 0.06 nM
SW 480
  IC50: 0.2 nM

## CC[C@@]1(O)C(=O)OCc2c1cc1n(c2=O)Cc2cc3c(N)cccc3nc2-1 [Example 2.1.a, 9-Amino-camptothecin, reference compound]
Bone marrow cells; Bone marrow cell, 168 h, mouse bone marrow cells with GM-CSF, 7 days, read-out: IC50 (inhibition of bone marrow stem cell proliferation)
  IC50: 1.6 ng/mL (≈ 4.4 nM)
